Results taken from patent US8614215B2, “Quinoxaline inhibitors of phosphoinositide-3-kinases (PI3Ks)” (Merck Serono SA, priority 2007, dated 2013).

System: Human recombinant GST-PI3K
Assay: PI3K induced-lipid phosphorylation, neomycin-SPA scintillation proximity assay
Assay type: biochemical
Details: Human recombinant GST-PI3K, SPA
Excerpt: The efficacy of compounds of the invention in inhibiting the PI3K induced-lipid phosphorylation may be tested in the following binding assay. The assay combines the scintillation proximity assay technology (SPA, Amersham) with the capacity of neomycin (a polycationic antibiotic) to bind phospholipids with high affinity and specificity. The Scintillation Proximity Assay is based on the properties of weakly emitting isotopes (such as ^3H, ^125I, ^33P). Coating SPA beads with neomycin allows the detection of phosphorylated lipid substrates after incubation with recombinant PI3K and radioactive ATP in the same well, by capturing the radioactive phospholipids to the SPA beads through their specific binding to neomycin.
To a 96 wells MTP containing 10 μL of the test compound of Formula (I) (solubilized in 10% DMSO; […]), the following assay components are added: 1) 10 μL of lipid micelles 2) 20 μL of Kinase buffer ([^33P]γATP162 μM/300 nCi, MgCl2 2.5 mM, DTT 2.5 mM, Na3VO4 25 uM in Hepes 40 mM, pH 7.4) and 3) 10 μL (100 ng) of Human recombinant GST-PI3K (in Hepes 40 mM, pH 7.4, ethylenglycol 4%). After incubation at room temperature for 120 minutes, with gentle agitation, the reaction is stopped by addition of 200 μL of a solution containing 250 μg of neomycin-coated PVT SPA beads, ATP 60 mM and EDTA 6.2 mM in PBS. The assay is further incubated at room temperature for 60 minutes with gentle agitation to allow binding of phospholipids to neomycin-SPA beads. After precipitation of the neomycin-coated PVT SPA beads for 5 minutes at 1500×g, radioactive PtdIns(3)P is quantified by scintillation counting in a Wallac MicroBeta™ plate counter.
The values indicated in Table I below refer to the IC50 (μM) with respect to PI3K, i.e. the amount necessary to achieve 50% inhibition of said target. Said values show a considerable inhibitory potency of quinoxaline compounds with regard to PI3K.

Row | SMILES | IC50
1 | CCCS(=O)(=O)Nc1nc2ccccc2nc1Nc1cc(OC)ccc1CCS(C)(=O)=O [Example 53, N-[3-({5-Methoxy-2-[2-(methylsulfonyl)ethyl]phenyl}amino)quinoxalin-2-yl]propane-1-sulfonamide] | 87 nM
2 | COc1ccc(CC2CCN(C)CC2)c(Nc2nc3ccccc3nc2NS(=O)(=O)c2cccnc2)c1 [Example 12, N-[3-({5-methoxy-2-[(1-methylpiperidin-4-yl)methyl]phenyl}amino)quinoxalin-2-yl]pyridine-3-sulfonamide] | 45 nM
3 | COC(=O)c1ccc(OC)cc1Nc1nc2ccccc2nc1NS(C)(=O)=O [Example 3, methyl 4-methoxy-2-({3-[(methylsulfonyl)amino]quinoxalin-2-yl}amino)benzoate] | 1650 nM
4 | COc1ccc(CCO)c(Nc2nc3ccccc3nc2NS(=O)(=O)c2c(C)noc2C)c1 [Example 43] | 286 nM
5 | COc1cc(Nc2nc3ccccc3nc2NS(C)(=O)=O)cc(C(=O)N2CCOCC2)c1 [Example 6, N-(3-{[3-methoxy-5-(morpholin-4-ylcarbonyl)phenyl]amino}quinoxalin-2-yl)methanesulfonamide] | 5620 nM
6 | COc1ccc(CC2CC(C)(C)N(C)C(C)(C)C2)c(Nc2nc3ccccc3nc2NS(=O)(=O)c2cn(C)cn2)c1 [Example 14, N-[3-({5-methoxy-2-[(1,2,2,6,6-pentamethylpiperidin-4-yl)methyl]phenyl}amino)quinoxalin-2-yl]-1-methyl-1H-imidazole-4-sulfonamide] | 420 nM
7 | COc1ccc(CCO)c(Nc2nc3ccccc3nc2NS(=O)(=O)C2CCS(=O)(=O)C2)c1 (stereo not drawn) [Example 56] | 86 nM
8 | COc1ccc(CCCO)c(Nc2nc3ccccc3nc2NS(=O)(=O)C(C)C)c1 [Example 50, N-(3-{[2-(3-Hydroxyproxyl)-5-methoxypheyl]amino}quinoxalin-2-yl)propane-2-sulfonamide] | 72 nM
9 | CCCS(=O)(=O)Nc1nc2ccccc2nc1Nc1cc(OC)ccc1CCCO [Example 49, N-(3-{[2-(3-Hydroxypropyl)-5-methoxyphenyl]amino}quinoxalin-2-yl)propane-1-sulfonamide] | 49 nM
10 | COc1ccc(CC2CCC(O)CC2)c(Nc2nc3ccccc3nc2NS(=O)(=O)c2cn(C)cn2)c1 (stereo not drawn) [Example 22, N-[3-({2-[(4-hydroxycyclohexyl)methyl]-5-methoxyphenyl}amino)quinoxalin-2-yl]-1-methyl-1H-imidazole-4-sulfonamide] | 18 nM
11 | CCCS(=O)(=O)Nc1nc2ccccc2nc1Nc1cc(OC)ccc1CCO [Example 39, N-(3-{[2-(2-Hydroxyethyl)-5-methoxyphenyl]amino}quinoxalin-2-yl)propane-1-sulfonamide] | 44 nM
12 | COc1ccc(CCO)c(Nc2nc3ccccc3nc2NS(=O)(=O)c2cccnc2)c1 [Example 27, N-(3-{[2-(2-hydroxyethyl)-5-methoxyphenyl]amino}quinoxalin-2-yl)pyridine-3-sulfonamide] | 40 nM
13 | COc1ccc(CCO)c(Nc2nc3ccccc3nc2NS(=O)(=O)c2ccc(F)cc2)c1 [Example 36, 4-Fluoro-N-(3-{[2-(2-hydroxyethyl)-5-methoxyphenyl]amino}quinoxalin-2-yl)benzenesulfonamide] | 23 nM
14 | COc1ccc(CC2CCN(C(C)=O)CC2)c(Nc2nc3ccccc3nc2NS(C)(=O)=O)c1 [Example 18] | 170 nM
15 | COc1ccc(CCS(C)(=O)=O)c(Nc2nc3ccccc3nc2NS(C)(=O)=O)c1 [Example 44, N-[3-({5-Methoxy-2-[2-(methylsulfonyl)ethyl]phenyl}amino)quinoxalin-2-yl]methanesulfonamide] | 200 nM
16 | CCS(=O)(=O)Nc1nc2ccccc2nc1Nc1cc(OC)ccc1CCO [Example 38, N-(3-{[2-(2-Hydroxyethyl)-5-methoxyphenyl]amino}quinoxalin-2-yl)ethanesulfonamide] | 60 nM

Now from value to compound:

Row | IC50 | SMILES
17 | 400 nM | COCCNC(=O)c1cc(Nc2nc3ccccc3nc2NS(=O)(=O)c2cn(C)cn2)cc(OC)c1 [Example 80, 3-Methoxy-N-(2-methoxyethyl)-5-[(3-{[(1-methyl-1H-imidazol-4-yl)sulfonyl]amino}quinoxalin-2-yl)amino]benzamide]
18 | 350 nM | COc1cc(Nc2nc3ccccc3nc2NS(=O)(=O)CCCS(C)(=O)=O)cc(C(=O)NCCO)c1 [Example 73, N-(2-Hydroxyethyl)-3-methoxy-5-{[3-({[3-(methylsulfonyl)propyl]sulfonyl}amino)quinoxalin-2-yl]amino}benzamide]
19 | 26 nM | COc1ccc(CCO)c(Nc2nc3ccccc3nc2NS(=O)(=O)c2ccc(CN(C)C)cc2)c1 [Example 89, 4-[(Dimethylamino)methyl]-N-(3-{[2-(2-hydroxyethyl)-5-methoxyphenyl]amino}quinoxalin-2-yl)benzenesulfonamide]
20 | 300 nM | COCCc1ccc(OC)cc1Nc1nc2ccccc2nc1NS(=O)(=O)C1CCN(C(C)=O)CC1 [Example 101, 1-Acetyl-N-(3-{[5-methoxy-2-(2-methoxyethyl)phenyl]amino}quinoxalin-2-yl)piperidine-4-sulfonamide]
21 | 100 nM | COc1ccc(CCOC(=O)[C@@H](N)C(C)C)c(Nc2nc3ccccc3nc2NS(=O)(=O)c2cn(C)cn2)c1 [Example 104]
22 | 30 nM | COc1ccc(CCCO)c(Nc2nc3ccccc3nc2NS(=O)(=O)c2cccc(NC(=O)CN(C)C)c2)c1 [Example 78, 2-Dimethylamino-N-(3-{[(3-{[2-(3-hydroxypropyl)-5-methoxyphenyl]amino}quinoxalin-2-yl)]sulfamoyl}phenyl)-acetamide]
23 | 32 nM | COc1ccc(CCCO)c(Nc2nc3ccccc3nc2NS(=O)(=O)c2ccc(NC(=O)CN(C)C)cc2)c1 [Example 71, 2-Dimethylamino-N-(4-{[(3-{[2-(3-hydroxypropyl)-5-methoxyphenyl]amino}quinoxalin-2-yl)]sulfamoyl}phenyl)-acetamide]
24 | 50 nM | COc1ccc(CCCS(C)(=O)=O)c(Nc2nc3ccccc3nc2NS(=O)(=O)c2cn(C)cn2)c1 [Example 68, N-[3-({5-Methoxy-2-[3-(methylsulfonyl)propyl]phenyl}amino)quinoxalin-2-yl]-1-methyl-1H-imidazole-4-sulfonamide]
25 | 36 nM | COc1ccc(CCO)c(Nc2nc3ccccc3nc2NS(=O)(=O)c2ccc(CCCO)cc2)c1 [Example 93, N-(3-{[2-(2Hydroxyethyl)-5-methoxyphenyl]amino}quinoxalin-2-yl)-4-(3-hydroxypropyl)benzenesulfonamide]
26 | 75 nM | COc1ccc(CCO)c(Nc2nc3ccccc3nc2NS(=O)(=O)CCCSC)c1 [Example 58, N-(3-{[2-(2-Hydroxyethyl)-5-methoxyphenyl]amino}quinoxalin-2-yl)-3-(methylthio)propane-1-sulfonamide]
27 | 100 nM | COc1cc(Nc2nc3ccccc3nc2NS(=O)(=O)c2cn(C)cn2)cc(C(=O)NCCO)c1 [Example 67, N-(2-Hydroxyethyl)-3-methoxy-5-[(3-{[(1-methyl-1H-imidazol-4-yl)sulfonyl]amino}quinoxalin-2-yl)amino]benzamide]
28 | 470 nM | COc1ccc(CO)c(Nc2nc3ccccc3nc2NS(=O)(=O)c2cn(C)cn2)c1 [Example 91, N-(3-{[2-(hydroxymethyl)-5-methoxyphenyl]amino}quinoxalin-2-yl)-1-methyl-1H-imidazole-4-sulfonamide]
29 | 760 nM | COc1cc(Nc2nc3ccccc3nc2NS(=O)(=O)c2cn(C)cn2)cc(C(=O)N(C)C)c1 [Example 75, 3-Methoxy-N,N-dimethyl-5-[(3-{[(1-methyl-1H-imidazol-4-yl)sulfonyl]amino}quinoxalin-2-yl)amino]benzamide]
30 | 27 nM | COc1ccc(CCO)c(Nc2nc3ccccc3nc2NS(=O)(=O)c2ccc(NC(=O)CN(C)C)cc2)c1 [Example 70, 2-Dimethylamino-N-(4-{[(3-{[2-(2-hydroxyethyl)-5-methoxyphenyl]amino}quinoxalin-2-yl)]sulfamoyl}phenyl)-acetamide]
31 | 300 nM | COc1ccc(S(=O)(=O)NCCO)c(Nc2nc3ccccc3nc2NS(=O)(=O)CCCS(C)(=O)=O)c1 [Example 64, N-(2-Hydroxyethyl)-4-methoxy-2-{[3-({[3-(methylsulfonyl)propyl]sulfonyl}amino)quinoxalin-2-yl]amino}benzenesulfonamide]
32 | 35 nM | COc1ccc(CC2CCSCC2)c(Nc2nc3ccccc3nc2NS(=O)(=O)c2ccc(CN(C)C)cc2)c1 [Example 88, 4-[(dimethylamino)methyl]-N-(3-{[5-methoxy-2-(tetrahydro-2H-thiopyran-4-ylmethyl)phenyl]amino}quinoxalin-2-yl)benzenesulfonamide]
33 | 120 nM | COc1ccc(CC(O)CO)c(Nc2nc3ccccc3nc2NS(=O)(=O)c2cn(C)cn2)c1 [Example 77, N-[3-({2-[(2R,2S)-2,3-Dihydroxypropyl]-5-methoxyphenyl}amino)quinoxalin-2-yl]-1-methyl-1H-imidazole-4-sulfonamide]
